According to PubChem BioAssay (NCI):
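Method: 48-hour compound exposure of cells in 96-well plates, five concentrations, linear interpolation of endpoints. The concentration for 50% growth inhibition is given as GI50. Definition used: TGI = concentration required for complete inhibition of growth.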 Where a SMILES comes first, the peptide text is derived from it. [ ]: non-standard residue; d: D form. The star is where a group is joined. NMeF = CN[C@@H](Cc1ccccc1)C(=O)O; NMeV = CN[C@H](C(=O)O)C(C)C; Boc = CC(C)(C)OC(=O)*; OBn = c1ccc(CO*)cc1

Key:
Experiment in all cases: NCI anticancer screen, dose series, 48 h
OVCAR-3 ovarian = test system: OVCAR-3 ovarian
MDA-MB-435 = test system: MDA-MB-435
SNB-19 CNS = test system: SNB-19 CNS
HOP-92 NSCLC = test system: HOP-92 NSCLC
A498 renal = test system: A498 renal
KM12 colon = test system: KM12 colon
U251 CNS = test system: U251 CNS
SN12C renal = test system: SN12C renal
SF-539 CNS = test system: SF-539 CNS
MCF7 breast = test system: MCF7 breast

Work on CNC(=O)NC(CCCCNC(=O)OCc1ccccc1)C(=O)OCc1ccccc1 (stereo not drawn) yielded a TGI (OVCAR-3 ovarian) of 57.9 µM, a TGI (MDA-MB-435) of 39.5 µM and a TGI (SNB-19 CNS) greater than 100 µM. It also gave a TGI (HOP-92 NSCLC) of 45.3 µM, a TGI (A498 renal) of 71.4 µM and a TGI (KM12 colon) greater than 100 µM. The TGI (U251 CNS) was greater than 97.1 µM, the TGI (SN12C renal) was greater than 84.6 µM and the TGI (SF-539 CNS) was 49.9 µM. It also gave a TGI (MCF7 breast) greater than 100 µM.

Molecule CCOC(=O)c1c(Cl)c2c(n1Cc1cccc(OC)c1)-c1oncc1CC2 has a GI50 (OVCAR-3 ovarian) of 0.383 µM, a TGI (OVCAR-3 ovarian) of 2.92 µM and a GI50 (MDA-MB-435) of 298 nM. It also gave a TGI (MDA-MB-435) of 15.6 µM, a GI50 (SNB-19 CNS) of 4.41 µM and a TGI (SNB-19 CNS) greater than 100 µM. For the same molecule, the GI50 (HOP-92 NSCLC) was 9.24 µM, the TGI (HOP-92 NSCLC) was greater than 100 µM and the GI50 (A498 renal) was 382 nM. The TGI (A498 renal) was 5.69 µM, the GI50 (KM12 colon) was 0.732 µM and the TGI (KM12 colon) was 77.9 µM. The GI50 (U251 CNS) was 4.75 µM, the TGI (U251 CNS) was greater than 100 µM and the GI50 (SN12C renal) was 6.04 µM. The TGI (SN12C renal) was greater than 100 µM, the GI50 (SF-539 CNS) was 2.12 µM and the TGI (SF-539 CNS) was 10.6 µM. It also gave a GI50 (MCF7 breast) of 620 nM and a TGI (MCF7 breast) greater than 100 µM.

CC(C)[C@@H](C(=O)N1CCC[C@H]1C(=O)OCc1ccccc1)N(C)C(=O)[C@H](C(C)C)N(C)C(=O)[C@H](Cc1ccccc1)N(C)C(=O)[C@H](NC(=O)OC(C)(C)C)C(C)C (Boc-[dV][NMeF][NMeV][NMeV]P-OBn) gave a GI50 (OVCAR-3 ovarian) greater than 100 µM, a TGI (OVCAR-3 ovarian) greater than 100 µM and a TGI (MDA-MB-435) greater than 50 µM. The TGI (SNB-19 CNS) was greater than 100 µM, the GI50 (HOP-92 NSCLC) was 20.9 µM and the TGI (HOP-92 NSCLC) was greater than 100 µM. For the same molecule, the TGI (A498 renal) was greater than 100 µM, the GI50 (KM12 colon) was greater than 100 µM and the TGI (KM12 colon) was greater than 100 µM. It also gave a TGI (U251 CNS) greater than 100 µM, a TGI (SN12C renal) greater than 100 µM and a TGI (SF-539 CNS) greater than 100 µM. The TGI (MCF7 breast) was greater than 50 µM.

For Cc1cc(C)c2nc3nc(C)cc(C)c3c(N)c2c1, the GI50 (OVCAR-3 ovarian) was 9.04 µM, the TGI (OVCAR-3 ovarian) was 39.9 µM and the GI50 (MDA-MB-435) was 3530 nM. It also gave a TGI (MDA-MB-435) of 16.6 µM, a GI50 (SNB-19 CNS) of 8.51 µM and a TGI (SNB-19 CNS) of 35.9 µM. It also gave a GI50 (HOP-92 NSCLC) of 3.23 µM, a TGI (HOP-92 NSCLC) of 19.7 µM and a GI50 (A498 renal) of 4670 nM. It also gave a TGI (A498 renal) of 17.8 µM, a GI50 (KM12 colon) of 5.52 µM and a TGI (KM12 colon) of 24 µM. For the same molecule, the GI50 (U251 CNS) was 4.3 µM, the TGI (U251 CNS) was 26.1 µM and the GI50 (SN12C renal) was 4.37 µM. It also gave a TGI (SN12C renal) of 36.2 µM, a GI50 (SF-539 CNS) of 4.15 µM and a TGI (SF-539 CNS) of 14.6 µM. For the same molecule, the GI50 (MCF7 breast) was 3540 nM and the TGI (MCF7 breast) was 16.7 µM.
